{
  "source": "ChEMBL document CHEMBL3608235",
  "about": "“Pyrroloaryls and pyrroloheteroaryls: Inhibitors of the HIV fusion/attachment, reverse transcriptase and integrase” (Bioorg Med Chem, 2015)",
  "key": {"[1]": {"system": "Human immunodeficiency virus 1", "experiment": "Antiviral activity against HIV1 by single-cycle antiviral assay", "type": "functional, organism-based"}, "[2]": {"system": "Human immunodeficiency virus 1", "experiment": "Antiviral activity against HIV1 by multi-cycle antiviral assay", "type": "functional, organism-based"}, "[3]": {"system": "Human immunodeficiency virus", "experiment": "Antiviral activity against HIV", "type": "functional, organism-based", "settings": "Human immunodeficiency virus 1"}, "[4]": {"system": "Human immunodeficiency virus 1", "experiment": "Antiviral activity against HIV1 infected in human MT4 cells", "type": "functional, organism-based", "settings": "Human immunodeficiency virus 1, MT4"}, "[5]": {"system": "Human immunodeficiency virus 1", "experiment": "Antiviral activity against HIV1 3B infected in human MT2 cells assessed as reduction in virus-induced cell death", "type": "functional", "settings": "Human immunodeficiency virus 1, 3B"}, "[6]": {"experiment": "Cytotoxicity against human MT2 cells", "type": "cell-based", "settings": "read-out: TC50 (the source's name)"}, "[7]": {"experiment": "Inhibition of HIV1 LTR-mediated transcription assessed as drug level causing 50% inhibition of protein/RNA complex formation incubated for 15 mins", "parameters": "species or system Human immunodeficiency virus"}, "C8166": {"system": "C8166", "experiment": "Cytotoxicity against human C8166 cells", "type": "cell-based", "settings": "Homo sapiens, C8166"}, "[8]": {"system": "Human immunodeficiency virus 1", "experiment": "Antiviral activity against HIV1 3B infected in human C8166 cells assessed as inhibition of virus replication", "type": "functional, organism-based", "settings": "Human immunodeficiency virus 1, 3B"}, "[9]": {"experiment": "Selectivity index, ratio of IC50 for human C8166 cells to EC50 for HIV1 3B infected in human C8166 cells", "type": "toxicity, cell-based", "settings": "C8166 cells (uninfected and HIV1 3B-infected), read-out: Ratio IC50/EC50"}, "[10]": {"system": "Human immunodeficiency virus 2", "experiment": "Antiviral activity against HIV2 LAI", "type": "functional, organism-based", "settings": "Human immunodeficiency virus 2, LAI"}, "[11]": {"system": "Human immunodeficiency virus 1", "experiment": "Antiviral activity against HIV1 SF2", "type": "functional, organism-based", "settings": "Human immunodeficiency virus 1, SF2"}, "[12]": {"system": "Human immunodeficiency virus 1", "experiment": "Antiviral activity against HIV1 NL4-3", "type": "functional, organism-based", "settings": "Human immunodeficiency virus 1, NL4-3"}, "[13]": {"system": "Human immunodeficiency virus 1", "experiment": "Antiviral activity against HIV1 BAL", "type": "functional, organism-based", "settings": "Human immunodeficiency virus 1, BAL"}, "[14]": {"system": "Human immunodeficiency virus 1", "experiment": "Antiviral activity against HIV1 SF162", "type": "functional, organism-based", "settings": "Human immunodeficiency virus 1, SF162"}, "[15]": {"system": "Human immunodeficiency virus 1", "experiment": "Antiviral activity against HIV1 JRFL", "type": "functional, organism-based", "settings": "Human immunodeficiency virus 1, JRFL"}, "[16]": {"system": "Human immunodeficiency virus 1", "experiment": "Antiviral activity against HIV1 TLAV", "type": "functional, organism-based", "settings": "Human immunodeficiency virus 1, TLAV"}, "[17]": {"experiment": "Selectivity index, ratio of CC50 for mock-infected human MT4 cells to EC50 for HIV1 infected in human MT4 cells", "type": "toxicity, cell-based", "settings": "MT4 cells (mock-infected and HIV1-infected), read-out: Ratio CC50/EC50"}, "[18]": {"experiment": "Selectivity index, ratio of IC50 for human CEM-SS cells to EC50 for HIV1 infected in human CEM-SS cells", "type": "toxicity, cell-based", "settings": "CEM-SS cells (uninfected and HIV1-infected), read-out: Ratio IC50/EC50"}, "[19]": {"system": "Human immunodeficiency virus", "experiment": "Antiviral activity against HIV by XTT assay", "type": "functional, organism-based", "settings": "Human immunodeficiency virus 1"}, "KB": {"system": "KB", "experiment": "Cytotoxicity against human KB cells", "type": "cell-based"}},
  "data": [
    {"smiles": "O=C1NC(c2ccc(O)cc2)c2c(-c3ccccc3)n[nH]c21", "note": "(stereo unspecified)", "values": [
      {"measurement": "EC50", "setting": "[1]", "result": 1.8, "unit": "µM"},
      {"measurement": "EC50", "setting": "[2]", "result": 1.4, "unit": "µM"}
    ]},
    {"smiles": "N#Cc1cn(COCCO)c2ncnc(N)c12", "values": [
      {"measurement": "IC50", "setting": "[3]", "result": 46, "unit": "µM"}
    ]},
    {"smiles": "CCOC(=O)c1cc2c3cccc(OC)c3c3c(N)cccc3n2c1C", "values": [
      {"measurement": "EC50", "setting": "[4]", "result": 60, "unit": "µM"}
    ]},
    {"smiles": "O=C(C[C@H]1C(=O)Nc2ccccc2-c2cccn21)OCc1ccccc1", "values": [
      {"measurement": "IC90", "setting": "[5]", "result": 0.29, "unit": "µg/mL"},
      {"measurement": "CC50", "setting": "[6]", "result": 10, "unit": "µg/mL"}
    ]},
    {"smiles": "COc1cc2c(cc1OCCC(=O)Nc1cc(C(=O)Nc3cc(C(=O)Nc4cc(C(=O)NCCC(=N)N)n(C)c4)n(C)c3)n(C)c1)N=C[C@@H]1CCCN1C2=O", "values": [
      {"measurement": "AC50", "setting": "[7]", "result": 15, "unit": "µM"}
    ]},
    {"smiles": "CSc1c(C#N)c2c(N)ncnc2n1COC(CO)CO", "values": [
      {"measurement": "IC50", "setting": "[3]", "result": 20, "unit": "µM"}
    ]},
    {"smiles": "CCOC(=O)c1cc2c3cc(OC)ccc3c3ccc(N)cc3n2c1C", "values": [
      {"measurement": "EC50", "setting": "[4]", "result": 120, "unit": "µM"}
    ]},
    {"smiles": "CCC1(c2cccc(OC)c2)Oc2ccccc2-n2cccc2C1=O", "note": "(stereo unspecified)", "values": [
      {"measurement": "IC50", "setting": "C8166", "result": 7, "unit": "µM"},
      {"measurement": "EC50", "setting": "[8]", "result": 0.033, "unit": "µM"},
      {"measurement": "selectivity ratio", "setting": "[9]", "result": 212}
    ]},
    {"smiles": "O=C(C(=O)N1CCN(C(=O)c2ccccc2)CC1)c1c[nH]c2ccccc12", "values": [
      {"measurement": "EC50", "setting": "[10]", "result": 0.85, "unit": "µM"},
      {"measurement": "EC50", "setting": "[11]", "result": 0.85, "unit": "µM"},
      {"measurement": "EC50", "setting": "[12]", "result": 0.85, "unit": "µM"},
      {"measurement": "EC50", "setting": "[13]", "result": 0.85, "unit": "µM"},
      {"measurement": "EC50", "setting": "[14]", "result": 0.85, "unit": "µM"},
      {"measurement": "EC50", "setting": "[15]", "result": 0.85, "unit": "µM"},
      {"measurement": "EC50", "setting": "[16]", "result": 0.85, "unit": "µM"}
    ]},
    {"smiles": "Cc1ccnc2c1NC(=O)c1cccnc1N2C1CC1", "note": "[NEVIRAPINE]", "values": [
      {"measurement": "selectivity ratio", "setting": "[17]", "result": "> 800"},
      {"measurement": "selectivity ratio", "setting": "[18]", "result": 525},
      {"measurement": "selectivity ratio", "setting": "[9]", "result": "> 250"}
    ]},
    {"smiles": "O=C1c2ccccc2C(=O)N1CCCCCN1C(=O)[C@H](Cc2ccc(O)cc2)n2cccc2-c2ccccc21", "values": [
      {"measurement": "IC90", "setting": "[5]", "result": 2.6, "unit": "µg/mL"},
      {"measurement": "CC50", "setting": "[6]", "result": "> 50", "unit": "µg/mL"}
    ]},
    {"smiles": "CN1N=C(N)c2cn([C@@H]3O[C@H](CO)[C@@H](O)[C@H]3O)c3nc(-c4ccccc4)nc1c23", "values": [
      {"measurement": "IC50", "setting": "[19]", "result": 3, "unit": "µM"},
      {"measurement": "EC50", "setting": "KB", "result": "> 100", "unit": "µM"}
    ]}
  ]
}
